Article PMC9040849 (RSC Advances, 2021)

What was measured:
[1] = in vitro; settings: human
[2] = system: influenza A/Puerto Rico/8/34 H1N1 (PR8) virus; experiment: microbe, parasite or virus in culture; type: cell-based; settings: for IC50: Influenza A virus, H1N1|PR8, A549, 24 h; for SI (selectivity index, ratio of the CC50 to the IC50): A549 cells, PR8

**Q.** For `COC(=O)Cn1c(C)nc(C#N)c1N` [Compound 4a, Methyl 2-(5-amino-4-cyano-2-methyl-1H-imidazol-1-yl)acetate], which CC50 [1] is on record?
**A.** 1.02 µM

**Q.** What does the source list for `COC(=O)C(C)n1c(C)nc(C#N)c1N` (stereo not shown) [Compound 4b, Methyl 2-(5-amino-4-cyano-2-methyl-1H-imidazol-1-yl)propanoate]?
**A.** IC50 [2]: 0.76 µM; CC50 [1]: 2.75 µM

**Q.** Which “SI (selectivity index, ratio of the CC50 to the IC50)” value [2] does the source give for `COC(=O)C(C(C)C)n1c(C)nc(C#N)c1N` (stereo not shown) [Compound 4c, Methyl 2-(5-amino-4-cyano-2-methyl-1H-imidazol-1-yl)-3-methylbutanoate] here?
**A.** 0.5

**Q.** What about the IC50 [2] of the same compound?
**A.** 2.41 µM

**Q.** And the CC50 [1]?
**A.** 1.13 µM

**Q.** Which results are given for `COC(=O)C(CO)n1c(C)nc(C#N)c1N` (stereo not shown) [Compound 4d, Methyl 2-(5-amino-4-cyano-2-methyl-1H-imidazol-1-yl)-3-hydroxypropanoate]?
**A.** IC50 [2]: 0.68 µM; CC50 [1]: 1.99 µM

**Q.** Which results are given for `COC(=O)C(Cc1ccccc1)n1c(C)nc(C#N)c1N` (stereo not shown) [Compound 4e, Methyl 2-(5-amino-4-cyano-2-methyl-1H-imidazol-1-yl)-3-phenylpropanoate]?
**A.** IC50 [2]: 0.39 µM; CC50 [1]: 0.84 µM

**Q.** For `COC(=O)C(Cc1ccc(O)cc1)n1c(C)nc(C#N)c1N` (stereo not shown) [Compound 4f, Methyl 2-(5-amino-4-cyano-2-methyl-1H-imidazol-1-yl)-3-(4-hydroxyphenyl)propanoate], which “SI (selectivity index, ratio of the CC50 to the IC50)” value [2] is on record?
**A.** 0.5

**Q.** And the IC50 [2]?
**A.** 3.2 µM

**Q.** And the CC50 [1]?
**A.** 1.45 µM

**Q.** Which “expression of HA on infected monolayers (RFU % vs untreated infected cells)” value [2] does the source give for `Cc1nc(C#N)c(N)n1CC(=O)O` [Compound 5a, 2-(5-Amino-4-cyano-2-methyl-1H-imidazol-1-yl)acetic acid] here?
**A.** decreased

**Q.** What about the IC50 [2] of the same compound?
**A.** 0.76 µM

**Q.** And the CC50 [1]?
**A.** 2.2 µM

**Q.** What does the source list for `Cc1nc(C#N)c(N)n1C(C)C(=O)O` (stereo not shown) [Compound 5b, 2-(5-Amino-4-cyano-2-methyl-1H-imidazol-1-yl)propanoic acid]?
**A.** SI (selectivity index, ratio of the CC50 to the IC50) [2]: 1; IC50 [2]: 3 µM; CC50 [1]: 2.91 µM

**Q.** Which “SI (selectivity index, ratio of the CC50 to the IC50)” value [2] does the source give for `Cc1nc(C#N)c(N)n1C(C(=O)O)C(C)C` (stereo not shown) [Compound 5c, 2-(5-Amino-4-cyano-2-methyl-1H-imidazol-1-yl)-3-methylbutanoic acid] here?
**A.** 0.8

**Q.** And the IC50 [2]?
**A.** 0.83 µM

**Q.** And the CC50 [1]?
**A.** 0.62 µM

**Q.** What does the source list for `Cc1nc(C#N)c(N)n1C(Cc1ccccc1)C(=O)O` (stereo not shown) [Compound 5e, 2-(5-Amino-4-cyano-2-methyl-1H-imidazol-1-yl)-3-phenylpropanoic acid]?
**A.** IC50 [2]: 0.46 µM; CC50 [1]: 3.36 µM

**Q.** For `Cc1nc(C#N)c(N)n1C(Cc1ccc(O)cc1)C(=O)O` (stereo not shown) [Compound 5f, 2-(5-Amino-4-cyano-2-methyl-1H-imidazol-1-yl)-3-(4-hydroxyphenyl)propanoic acid], which “SI (selectivity index, ratio of the CC50 to the IC50)” value [2] is on record?
**A.** 0.45

**Q.** What about the IC50 [2] of the same compound?
**A.** 1.99 µM

**Q.** And the CC50 [1]?
**A.** 0.9 µM

**Q.** With `COC(=O)Cn1c(C)nc2c(=O)[nH]cnc21` [Compound 6a, Methyl 2-(8-methyl-6-oxo-1,6-dihydro-9H-purin-9-yl)acetate] as the compound, how does the “SI (selectivity index, ratio of the CC50 to the IC50)” value [2] read?
**A.** 0.3

**Q.** And the IC50 [2]?
**A.** 6.96 µM

**Q.** What about the CC50 [1] of the same compound?
**A.** 2.11 µM

**Q.** Which CC50 [1] does the source give for `COC(=O)C(C)n1c(C)nc2c(=O)[nH]cnc21` (stereo not shown) [Compound 6b, Methyl 2-(8-methyl-6-oxo-1,6-dihydro-9H-purin-9-yl)propanoate] here?
**A.** 0.47 µM

**Q.** What does the source list for `COC(=O)C(C(C)C)n1c(C)nc2c(=O)[nH]cnc21` (stereo not shown) [Compound 6c, Methyl 3-methyl-2-(8-methyl-6-oxo-1,6-dihydro-9H-purin-9-yl)butanoate]?
**A.** IC50 [2]: 0.18 µM; CC50 [1]: 0.31 µM

**Q.** With `COC(=O)C(CO)n1c(C)nc2c(=O)[nH]cnc21` (stereo not shown) [Compound 6d, Methyl 3-hydroxy-2-(8-methyl-6-oxo-1,6-dihydro-9H-purin-9-yl)propanoate] as the compound, how does the CC50 [1] read?
**A.** 0.93 µM

**Q.** Which results are given for `COC(=O)C(Cc1ccccc1)n1c(C)nc2c(=O)[nH]cnc21` (stereo not shown) [Compound 6e, Methyl 2-(8-methyl-6-oxo-1,6-dihydro-9H-purin-9-yl)-3-phenylpropanoate]?
**A.** SI (selectivity index, ratio of the CC50 to the IC50) [2]: 0.3; IC50 [2]: 1.87 µM; CC50 [1]: 0.51 µM

**Q.** What does the source list for `COC(=O)C(Cc1ccc(O)cc1)n1c(C)nc2c(=O)[nH]cnc21` (stereo not shown) [Compound 6f, Methyl 3-(4-hydroxyphenyl)-2-(8-methyl-6-oxo-1,6-dihydro-9H-purin-9-yl)propanoate]?
**A.** IC50 [2]: 0.48 µM; CC50 [1]: 0.8 µM

**Q.** With `Cc1nc2c(=O)[nH]cnc2n1CC(=O)O` [Compound 7a, 2-(8-Methyl-6-oxo-1,6-dihydro-9H-purin-9-yl)acetic acid] as the compound, how does the “SI (selectivity index, ratio of the CC50 to the IC50)” value [2] read?
**A.** 0.84

**Q.** What about the IC50 [2] of the same compound?
**A.** 0.89 µM

**Q.** What about the CC50 [1] of the same compound?
**A.** 0.75 µM

**Q.** With `Cc1nc2c(=O)[nH]cnc2n1C(C)C(=O)O` (stereo not shown) [Compound 7b, 2-(8-Methyl-6-oxo-1,6-dihydro-9H-purin-9-yl)propanoic acid] as the compound, how does the IC50 [2] read?
**A.** 1.85 µM

**Q.** And the CC50 [1]?
**A.** 2.86 µM

**Q.** Which “expression of HA on infected monolayers (RFU % vs untreated infected cells)” value [2] does the source give for `Cc1nc2c(=O)[nH]cnc2n1C(C(=O)O)C(C)C` (stereo not shown) [Compound 7c, 3-Methyl-2-(8-methyl-6-oxo-1,6-dihydro-9H-purin-9-yl)butanoic acid] here?
**A.** decreased

**Q.** And the IC50 [2]?
**A.** 0.59 µM

**Q.** And the CC50 [1]?
**A.** 1.09 µM

**Q.** With `Cc1nc2c(=O)[nH]cnc2n1C(CO)C(=O)O` (stereo not shown) [Compound 7d, 3-Hydroxy-2-(8-methyl-6-oxo-1,6-dihydro-9H-purin-9-yl)propanoic acid] as the compound, how does the CC50 [1] read?
**A.** 6.11 µM

**Q.** With `Cc1nc2c(=O)[nH]cnc2n1C(Cc1ccccc1)C(=O)O` (stereo not shown) [Compound 7e, 2-(8-Methyl-6-oxo-1,6-dihydro-9H-purin-9-yl)-3-phenylpropanoic acid] as the compound, how does the CC50 [1] read?
**A.** 6.35 µM
